Data as given in patent publication US9309314B2, “Polypeptides, nucleic acids and uses thereof” (AGENCY FOR SCIENCE, TECHNOLOGY AND RESEARCH (A*STAR), priority 2013, dated 2016).
“Also recorded” adds a separate entry of the source.

Experiments:
hESCs [1] = assay: hESC growth assays (cell counts, colony size, xCELLigence real time cell index); format: cell-based, human
Experimental: Feeder-free hESCs were cultured in clumps in mTSER1 (Stem Cell Technologies) on Matrigel (BD 354277).
hESCs were dissociated into single cells using Accutase (Stem Cell Technologies) and plated in the presence of 10 μM Y-27632 (ROCK inhibitor) for 12 hours (Watanabe et al., 2007).
(§1) For xCELLigence real time growth assays, 4000 cells were plated per well of an E-plate (ACEA Biosciences) with media changes every 48 hours.
(§2) Recombinant ELA was added at 2.5 uM (or 10 μg/ml). Cell cycle studies were performed with Click-iT EDU staining kit (Invitrogen) and by performing a double thymidine block (2.5 mM thymidine; 16 hour block, 8 hour release, 16 hour block) followed by DAPI staining for DNA content at the indicated times following release.

hESCs [2] = assay: Uptake of FITC-labeled recombinant ELA by hESCs (immunofluorescence); format: cell-based, human; conditions: peptide labeled with FITC
other tested cell types = assay: Cellular uptake of recombinant ELA in other tested cell types; format: cell-based; conditions: other tested cell types than hESCs
shELA hESCs = assay: Rescue of growth of shELA hESCs by exogenous peptide; format: cell-based, human; conditions: addition of recombinant peptide
Experimental: as §1, §2
To generate stable inducible knockdown of ELA in hESCs, the sequence […] (SEQ ID NO: 132) targeting the 3′UTR of ELA was cloned into pSUPERIOR (Oliogoengine) and nucleofected (Lonza) into Shef4TetR5 hESCs (Zafarana et al., 2009). Neomycin-resistant cells were clonally expanded and assayed for doxycycline (20 ng/ml)-inducible knockdown. Data from one representative clone (Shef4TetR5 shELA) are shown in this paper. Shef4TetR5 shβ2M were derived as previously described (Zafarana et al., 2009). Unless otherwise stated, ELA knockdown was induced on Day −4 with 20 ng/ml doxycycline to generate shELA cells.

hECs = assay: Growth and survival of hECs with recombinant ELA; format: cell-based, human; conditions: multipotent hECs
Experimental: (§3) Primary human fibroblasts, SW1353 chondrosarcoma (ATCC) and NTERA2 hECs (a gift from Barbara Knowles and Davor Solter) were grown in Dulbecco's modified Eagle's medium (DMEM) with 10% FBS (Hyclone), 2 mM GlutaMAX™ (Invitrogen) and 1 mM sodium pyruvate.
as §1, §2

[3] = tested on: human chondrosarcoma cell line; assay: Growth and survival of chondrosarcoma cells with recombinant ELA; format: cell-based; conditions: unipotent human chondrosarcoma cells
Experimental: as §3, §1, §2

[4] = tested on: primary human fibroblasts; assay: Growth and survival of primary fibroblasts with recombinant ELA; format: cell-based; conditions: primary fibroblast cells
Experimental: as §3, §1, §2

[5] = tested on: mesendodermal genes including GATA6, GATA4, FOXA2, EOMES and BRA; assay: qPCR of mesendodermal markers in hESCs; format: cell-based, human
Experimental: (§4) After the indicated time periods, embryoid bodies were harvested and RNA extracted using RNeasy kit […]. qPCR reactions were carried out using either Universal FastStart SYBR Green Mastermix (Roche) or using the Universal Probe Library system (Roche) in tandem with Taqman Fast Mastermix (Invitrogen). Primer sequences can be found in Table E1.

SSEA3 and TRA-1-60 = assay: FACs of stem cell surface markers in ELA-treated hESCs; format: cell-based, human; conditions: hESCs treated with recombinant ELA
hESCs [6] = assay: Embryoid body differentiation of ELA-treated hESCs (qPCR); format: cell-based, human
Experimental: Embryoid body differentiation was performed by plating 1 million cells per well of an Aggrewell 400 plate in Aggrewell Medium (Stem Cell Technologies) followed by harvesting and replating into low-adhesion plates (Corning).
as §4

hESCs [7] = assay: Directed endoderm differentiation of hESCs (SOX17+ cell count); format: cell-based, human; conditions: 2.5 uM ELA peptide up to day 3
Experimental: Shef4TetR5-shELA and Shef4TetR5-shβ2M cells were cultured in the presence (shELA and shβ2M respectively) or absence (Control) of 20 ng/ml doxycycline for 1 passage (4 days) and dissociated with Accutase. […] 24 hours later, the media was changed to Endo differentiation media 1 [RPMI 1640 (Gibco), 1X B-27 supplement (Invitrogen), 50 ng/ml of Activin A (R&D Systems), 25 ng/ml BMP4 (R&D Systems) and 50 ng/ml bFGF (Invitrogen)] for 3 days. On day 3, the media was changed to Endo differentiation media 2 (RPMI 1640, B27, 50 ng/ml Activin) for 2 more days of culture. Rescue experiments were performed by adding 2.5 uM of ELA peptide to Shef4TetR5-shELA concurrently with doxycycline up to day 3, when the ELA peptide is no longer necessary as judged by downregulation of endogenous ELA.
On day 5, cells were fixed with 4% paraformaldehyde and stained with α SOX17 (AF1924, R&D Systems) and DAPI. For each well, three different randomly selected fields were imaged and the number of nuclei staining positive of SOX17 and DAPI were counted using a custom macro in ImageJ. A minimum of two wells per condition was used for each experiment, and a minimum of two independent experiments were performed to generate the results.

[8] = tested on: myocardial ischaemia-reperfusion injury; assay: Myocardial ischaemia-reperfusion injury (APELIN publications repeated with ELABELA); format: in vivo; conditions: administered during reperfusion
Text: Peptides 2009; 30:1144-52. • Simpkin J C, Yellon D M, Davidson S M, Lim S Y, Wynne A M, Smith C C. […] Basic Res Cardiol 2007; 102:518-28.

myocardial infarction = assay: Coronary artery disease / myocardial infarction (APELIN publications repeated with ELABELA); format: in vivo, rat
Text: Peptides 2013; 46:76-82. • Li L, Zeng H, Chen J X. Apelin-13 increases myocardial progenitor cells and improves repair postmyocardial infarction. Am J Physiol Heart Circ Physiol 2012; 303:H605-18. • Pisarenko O I, Serebryakova L I, Pelogeykina Y A, et al. In vivo reduction of reperfusion injury to the heart with apelin-12 peptide in rats. Bull Exp Biol Med 2011; 152:79-82.

atherosclerosis = assay: Atherosclerosis (APELIN publication repeated with ELABELA); conditions: mouse, in vivo
Text: J Clin Invest 2008; 118:3343-54.
The experiments described in the above publication are repeated, with the replacement of APELIN with ELABELA.

heart failure = assay: Heart failure (APELIN publications repeated with ELABELA); conditions: in vivo
Text: Nature 2012 Aug. […] J Clin Invest. 2013 Nov. 1.

blood pressure = assay: Hypertension (APELIN publications repeated with ELABELA); conditions: in vivo
Text: Regulatory Peptides. 2001; 99(2-3):87-92. • Cheng X, Cheng X S, Pang C C. […] European Journal of Pharmacology. […] Journal of the American College of Cardiology. 2008; 52(11):908-913.

[9] = tested on: pulmonary arterial hypertension; assay: Pulmonary arterial hypertension (APELIN publications repeated with ELABELA); conditions: in vivo
Text: J Clin Invest 2011; 121:3735-46.
Am J Physiol Heart Circ Physiol 2009; 296:H2007-14.

erectile function = assay: Erectile dysfunction (APELIN publication repeated with ELABELA); conditions: mouse, in vivo
Text: J Sex Med. 2013 Apr. 11. doi: 10.1111/jsm.12158.

Sequence: QRPVNLTMRRKLRKHNCLQRRCMPLHSRVPFP (listed as Homo sapiens) [ELA]
- growth of hESCs by cell numbers (hESCs [1]; FIG. 3C, relative to untreated hESCs): increased growth
- survival of hESCs (hESCs [1]; FIG. 3D, relative to untreated hESCs): increased survival
- concentration range in which the recombinant peptide is bioactive (hESCs [1]; hESCs, endogenous ELA in conditioned media is in the nM range): μM range
- uptake by hESCs (hESCs [2]): rapidly up-taken; also recorded: rapidly taken up
- rapid cellular uptake (other tested cell types): not in other tested cell types
- rescue of the growth of shELA hESCs (shELA hESCs): sufficient to rescue; also recorded: entirely rescued to normal levels
- pro-growth and survival properties (hECs): not seen; also recorded: exerted activity only on hESCs cultures
- pro-growth and survival properties [3]: not seen; also recorded: exerted activity only on hESCs cultures
- pro-growth and survival properties [4]: not seen; also recorded: exerted activity only on hESCs cultures
- expression of mesendodermal markers [5]: significantly higher levels of mesendodermal markers; also recorded: consistently upregulated
- levels of cell surface markers SSEA3 and TRA-1-60 (SSEA3 and TRA-1-60): do not lose; also recorded: unchanged levels
- lineage commitment during embryoid body differentiation (hESCs [6]): can differentiate into all three germ layers; also recorded: not biased towards mesoderm or endoderm lineages
- rescue of endoderm differentiation of shELA hESCs (hESCs [7]): entirely rescued; also recorded: sufficient to rescue
- infarct size [8]: significantly decrease infarct size
- myocardial infarction size and damage to cardiomyocytes (myocardial infarction; injection): limit the myocardial infarction size and reduce damage to cardiomyocytes
- angiogenesis and cardiac repair postmyocardial infarction (myocardial infarction; rat, in vivo): promote angiogenesis and ameliorate cardiac repair postmyocardial infarction
- Ang II-mediated increase in atherosclerosis burden (atherosclerosis): mitigates the Ang II-mediated increase in atherosclerosis burden
- abdominal aortic aneurysm formation and rupture (atherosclerosis): inhibit abdominal aortic aneurysm formation and rupture
- protection against atherosclerosis (atherosclerosis): can protect against atherosclerosis
- protection against heart failure (heart failure): able to provide protection against heart failure
- blood pressure (blood pressure): causes a reduction in blood pressure
- symptoms of pulmonary arterial hypertension [9]: alleviates symptoms of pulmonary arterial hypertension
- erectile function (erectile function): significant restoration of erectile function
- HIV-1 entry (HIV-1): prevents or slows-down HIV-1 entry
